Source: patent US12404303B2, “Polypeptide and use thereof” (NANJING ANJI BIOLOGICAL TECHNOLOGY CO., LTD., priority 2019, dated 2025)
No end group written: not given here.

Experiments:
[1] = system: SD rats with bleomycin-induced pulmonary fibrosis; experiment: Bleomycin-induced pulmonary fibrosis animal model; format: in vivo; settings: bleomycin 5 mg/kg intratracheal, polypeptides 7.5 mg/kg subcutaneous twice a day, positive drug 25 mg/kg intragastric once a day, 14 days
Description: SD rats were anesthetized by intraperitoneal injection of 1 mL/100 g 4% chloral hydrate. After anesthesia, the rats were fixed and their necks were disinfected by using cotton with 75% alcohol. The skin of the rat neck was longitudinally cut with scissors, and the fascia and muscle were longitudinally bluntly torn with tweezers to expose the trachea. A syringe was inserted into the trachea to inject 5 mg/kg bleomycin, while a blank group was injected with an equal amount of normal saline. Then a rat plate was quickly erected and rotated, the rats' breathing was observed, the neck wound was sterilized after rotation and was sewn, and an amoxicillin anti-inflammatory drug was sprinkled on the suture. After the operation, the rats were put back into a dry and clean cage for resting, waiting was performed for awakening. The rats were awakened after about 1-2 hours, and then fed normally. On the 7th day after modeling, modeling group animals randomly fell into a model group, a Nintedanib positive drug group, polypeptide I, II, III and IV dosage groups, and a normal control group, and the groups were administered separately for an administration cycle of 14 days. Living situations of rats were observed every day and their weights were weighed.

chlamydia pneumoniae = experiment: Mouse pneumonia model, chlamydia pneumonia; format: in vivo, BALB/C mice; settings: average values±standard deviation
Excerpt: (§1) A mouse pneumonia model was successfully established by using a nasal drip method. BALB/C mice with a body weight of 18-24 g were selected, and then anesthetized with ether on day 0, day 1 and day 2, respectively, prepared streptococcus pneumoniae bacteria solution, adenovirus concentrated solution, mycoplasma pneumoniae, chlamydia pneumoniae, protozoa and pneumonia fungi were slowly dropped into the nasal cavity of the mice, so that the bacteria solutions entered the trachea and bronchi, and the bacteria solutions were prevented from flowing into the esophagus during the operation to avoid inactivation of the bacteria solutions, so that the mouse pneumonia model was established. After the model was successfully established, the polypeptide according to the present disclosure was administered, as shown in FIG. 7 and Table 9. […] The experimental results are represented on the basis of average values±standard deviation.

protozoa = experiment: Mouse pneumonia model, protozoal pneumonia; format: in vivo, BALB/C mice; settings: average values±standard deviation
Excerpt: as §1

streptococcus pneumoniae = experiment: Mouse pneumonia model, bacterial pneumonia; format: in vivo, BALB/C mice; settings: average values±standard deviation
Excerpt: as §1

pulmonary infections = experiment: Mouse pneumonia model, pneumonia caused by pulmonary infections; format: in vivo, BALB/C mice; settings: average values±standard deviation
Excerpt: as §1

mycoplasma pneumoniae = experiment: Mouse pneumonia model, mycoplasma pneumonia; format: in vivo, BALB/C mice; settings: average values±standard deviation
Excerpt: as §1

adenovirus = experiment: Mouse pneumonia model, viral pneumonia; format: in vivo, BALB/C mice; settings: average values±standard deviation
Excerpt: as §1

pneumonia fungi = experiment: Mouse pneumonia model, fungal pneumonia; format: in vivo, BALB/C mice; settings: average values±standard deviation
Excerpt: as §1

[2] = system: SD rats with renal fibrosis; experiment: Renal fibrosis animal model (ureter ligation), TGF-β1 in serum; format: in vivo; settings: 7.5 mg/kg subcutaneous twice a day, 14 days, vs model group; FIG. 4
Description: A renal fibrosis animal model was established. SD rats were anesthetized with 4% chloral hydrate, injected with 1 mL/100 g intraperitoneally, fixed to an operation board, and sterilized in an operation area for later use. […] Muscular layers and abdominal walls were sewed layer by layer, the suture was disinfected with alcohol. After SD rats woke up, the rats were put into a cage for feeding. In the blank group, ureter was not ligated, and other steps were the same. Then, the animals fell into a blank group, a model group, and polypeptide administration groups, and the administration was started on the second day after the operation, twice a day for 14 days. After administration for 14 days, blood was taken and supernatant was taken to detect the content of TGF-β1 in serum. [table]

LX-2 cells = experiment: Proliferation of LX-2 cells induced by TGF-β1 (MTT, in vitro hepatic fibrosis model); format: cell-based; settings: polypeptide 1 μmol/L, TGF-β1 10 ng/mL, 48 hours; for OD value: MTT, 570 nm
Description: LX-2 cells were cultured in 1640 medium containing 10% FBS, and cultured in an incubator with 5% CO2 at 37° C. The medium was replaced every two days, and subcultured according to the cell density. The LX-2 cells in a logarithmic growth phase were digested with 0.25% pancreatin to make cell suspension. The density of the cells was adjusted to 4×10^5 cells/mL, and the cells were inoculated into 96-well plates with 100 μL per well and cultured overnight. On the second day, TGF-β1 was added to induce the proliferation and activation of the LX-2 cells, and the polypeptide drugs were administrated at 1 μmol/L. TGF-β1 (10 ng/mL) was added to each group except the blank group. The cells were cultured in the incubator for 48 hours, and then 10 μL of MTT was added to each well. The MTT was removed after 4 hours, and 150 μL of DMSO was added for reaction for 5 min. An OD value was measured by a microplate reader at 570 nm.

myelofibrosis model mice = experiment: Myelofibrosis model induced by rh EPO; format: in vivo, Kunming mice; design: WBC / Hb / MCV / RDW: unit not given here; settings: 10 mg/kg subcutaneous twice a day, 28 days; for Hb / MCV / RDW / WBC: peripheral blood; for content of TGF-β1 in serum: mouse serum, vs model group, FIG. 5
Description: There were 10 mice in each group. The normal control group was injected with normal saline (0.3 mL for each mouse), and the remaining groups were injected with rh EPO (0.1 unit/gram, body weight, 0.3 mL for each mouse) intraperitoneally every day. After induction for two days, drug therapy was started, subcutaneous injection was given twice a day, and after continuous administration for 28 days, the mouse heart was punctured for blood extraction, some blood was used for peripheral blood analysis, some blood was centrifuged, and the supernatant was taken to measure the content of TGF-β1 in the serum of mice. [table]

skin fibrosis model mice = experiment: Skin fibrosis model induced by bleomycin, HYP in skin tissue; format: in vivo, C57/BL black mice; settings: skin tissue of the mouse back; 10 mg/kg subcutaneous twice a day, 28 days, vs model group; FIG. 6
Description: Bleomycin (10 μg/mL) was injected subcutaneously every day for 28 days to form skin fibrosis. During the modeling period, the administration groups were given polypeptide drugs every day for treatment, with 10 mice in each group. After modeling, the mice were killed on the next day, and the skin tissue of the mouse back was taken to detect the content of HYP in the skin tissue. [table]

[3] = system: cardiac fibroblasts of rats; experiment: Proliferation of cardiac fibroblasts of rats (MTT, in vitro myocardial fibrosis model); format: cell-based; settings: 1 μmol/L; for Optical density values, 12 hours / Optical density values, 24 hours / Optical density values, 48 hours: MTT, 570 nm; for inhibition of the proliferation of cardiac fibroblasts of rats: at 24 hours and 48 hours
Description: The inhibitory effect of a polypeptide on cardiac fibroblasts of rats was detected by MTT assay. Cells were cultured in a DMEM medium containing 10% of FBS, the cytoplasm was made into 1×10^5/mL cell suspension, and 100 μL per well was inoculated into a 96-well plate. After the cells adhered to the wall, the medium was replaced with a serum-free DMEM medium, and the serum-free medium was discarded after 24 hours. The cells were cultured with different polypeptides of 1 μmol/L, and 5 multiple wells were set for each concentration. After 12, 24 and 48 hours separately, 10 μL of MTT was added to each well. After 4 hours, MTT was sucked out, and 150 μL of DMSO was added to each well. After reaction for 5 min, an OD value was measured at 570 nm by a microplate reader.

| Compound | Survival rate (%) [1] | Inhibitory effect on pulmonary infections, Chlamydia pneumonia (chlamydia pneumoniae) | Inhibitory effect on pulmonary infections, Protozoal pneumonia (protozoa) | Inhibitory effect on pulmonary infections, Bacterial pneumonia (streptococcus pneumoniae) | Inhibitory effect on pulmonary infections, Pneumonia caused by pulmonary infections (pulmonary infections) | Inhibitory effect on pulmonary infections, Mycoplasma pneumonia (mycoplasma pneumoniae) | Inhibitory effect on pulmonary infections, Viral pneumonia (adenovirus) | Inhibitory effect on pulmonary infections, Fungal pneumonia (pneumonia fungi) | content of TGF-β1 in serum [2] | inhibition of proliferation and activation of LX-2 cells, difference from model group (LX-2 cells) | OD value (LX-2 cells) | Hb (myelofibrosis model mice) | MCV (myelofibrosis model mice) | RDW (myelofibrosis model mice) | WBC (myelofibrosis model mice) | expression of HYP in the skin tissue (skin fibrosis model mice) | Optical density values, 12 hours [3] | Optical density values, 24 hours [3] | Optical density values, 48 hours [3] | inhibition of the proliferation of cardiac fibroblasts of rats [3] | also measured |
| --- | --- | --- | --- | --- | --- | --- | --- | --- | --- | --- | --- | --- | --- | --- | --- | --- | --- | --- | --- | --- | --- |
| COC(=O)c1ccc2c(c1)NC(=O)/C2=C(\Nc1ccc(N(C)C(=O)CN2CCN(C)CC2)cc1)c1ccccc1 [Positive drug, Nintedanib, reference compound] | 85.7% | – | – | – | – | – | – | – | – | – | – | – | – | – | – | – | – | – | – | – | – |
| Penicillin [reference compound] | – | 30.75 ± 3.31 | 39.04 ± 3.71 | 35.05 ± 5.75 | 35.67 ± 4.55 | 41.77 ± 5.73 | 38.07 ± 2.27 | 38.61 ± 3.82 | – | – | – | – | – | – | – | – | – | – | – | – | – |
| RGADRAGGGGPRCWCGE (cysteine pairing not given here) [Polypeptide II] | 85.7% | 57.81 ± 5.21 | 63.60 ± 6.16 | 49.25 ± 9.48 | 66.15 ± 5.87 | 54.69 ± 5.72 | 70.33 ± 9.27 | 65.32 ± 3.07 | highly significantly different from the model group (***P<0.001) | highly significantly different from the model group (**P<0.01) | 0.59 ± 0.02 | 151 ± 19 | 51 ± 9 | 26 ± 3 | 5.61 ± 1.43 | highly significantly different from the model group (***P<0.001) | 0.325 ± 0.004 | 0.377 ± 0.015 | 0.518 ± 0.015 | could inhibit the proliferation | – |
| RGADRAGGGGPRCWRGE [Polypeptide I] | 78.6% | 45.18 ± 7.46 | 48.16 ± 5.46 | 43.83 ± 7.59 | 52.47 ± 7.88 | 41.48 ± 5.55 | 58.00 ± 6.84 | 45.65 ± 9.68 | highly significantly different from the model group (**P<0.01) | significantly different from the model group (*P<0.05) | 0.66 ± 0.02 | 143 ± 23 | 52 ± 4 | 31 ± 2 | 5.97 ± 1.76 | highly significantly different from the model group (***P<0.001) | 0.326 ± 0.006 | 0.392 ± 0.008 | 0.580 ± 0.012 | could inhibit the proliferation | content of TGF-β1 in serum (myelofibrosis model mice): highly significantly different from the model group (**P<0.01) |
| RGADRAGGGGPRCYCGE (cysteine pairing not given here) [Polypeptide IV] | 92.9% | 38.85 ± 3.11 | 49.04 ± 3.17 | 45.05 ± 3.25 | 55.57 ± 4.25 | 43.27 ± 5.63 | 58.07 ± 2.07 | 48.61 ± 3.22 | highly significantly different from the model group (**P<0.01) | significantly different from the model group (*P<0.05) | 0.64 ± 0.03 | 155 ± 16 | 54 ± 5 | 24 ± 1 | 5.83 ± 1.07 | highly significantly different from the model group (*P<0.05) | 0.309 ± 0.010 | 0.385 ± 0.008 | 0.598 ± 0.013 | could inhibit the proliferation | content of TGF-β1 in serum (myelofibrosis model mice): highly significantly different from the model group (**P<0.01) |
